How the values were obtained:
SF9 cells = assay: Cell lysis, percent cell viability by Vi-Cell (trypan blue exclusion); format: cell-based, insect; details: SF9, 1 hour incubation
Method: The cell rupture solution was tested both for HEK 293 and SF9 cell lines. The cell concentration was >5×10^6 cells/ml. A cell harvest in cell culture media was spiked with the concentrated stock of cell rupture solution to reach a final cell rupture solution concentration ranging from 0% to 0.5% and was incubated for about 5 minutes to about 1 hour at 15° C. to 30° C. The concentration of the stock solution could be 1-500-fold higher than the target concentration. After the incubation period, cell viability of cells was analyzed by a Vi-Cell reader.
SF9 cells for the study were grown in SF-900 II SFM (Invitrogen/Gibco 10902) media in a non-vented non-baffled shake flask. The incubator was set at 27° C. and 125 rpm.
For the cell lysis study, 2 mL of cells were added to each of 10×15 mL tubes under a sterile biosafety cabinet. Each tube was spiked with 0% (control, no detergent), 0.0025%, 0.005%, 0.0075%, 0.01%, 0.02%, 0.05%, 0.1%, 0.25%, and 0.5% of cell rupture solution using a concentrated stock. Cell counts and percent cell viability were determined at 15 min, 30 min, and 1 hour time points for each sample using the ViCell cell viability analyzer.
Cell viability was assessed by a Vi-Cell XR using trypan blue exclusion staining. […]

HEK 293 cells = details: HEK 293, 1 hour incubation
[1] = reference [6]; cited from earlier work

## Octoxynol-9 [Triton X-100]
SF9 cells
  detergent concentration at which cell lysis was complete: 0.05%
HEK 293 cells
  detergent concentration at which cell lysis was complete: 0.05%
[1]
  toxicity reported by research: acute oral toxicity, eye damage, skin irritation, and chronic aquatic toxicity

Source: patent US20250197794A1, “MEMBRANE RUPTURE COMPOSITIONS AND METHODS OF MAKING AND USING SAME” (priority 2020, published 2025)
